Results reported in PubChem BioAssay AID1963852 (Molecular Pharmacology Branch, DTP, NCI, 2024).
Where “and” joins values, the source holds several entries; their conditions need not be identical. Equal values may be shown once.

System: 282377-053-R-J1-PDC complex spheroid viability
Test: Anticancer human tumor 282377-053-R-J1-PDC patient-derived colon adenocarcinoma cell line growth inhibition [POLQ]
Settings: for viability, T/C: stronger effect = lower value
Method: Multicellular complex tumor spheroid response to Polymerase (POL) inhibitors (novobiocin, ART-558, RP6685) in combination with a variety of drugs and investigational agents in selected tumor cell lines
The POL inhibitors (novobiocin, ART-558, and RP6685) were evaluated both individually and in combination with standard of care and investigational anticancer small molecules within a complex spheroid model of solid tumors. . Complex spheroids include a stromal component modeled by human endothelial cells (HUVEC) and fibroblasts modeled by human mesenchymal stem cells (MSCs). The concentration ranges selected for each drug and investigational agent were based upon clinically achievable concentrations if the clinical Cmax of the agent was known.
Compounds. The drugs and investigational agents: novobiocin (NSC847541), ART-558 (NSC835418), RP-6685 (NSC848927), peposertib (NSC802822), ceralasertib (NSC780249), elimusertib (NSC800525), camonsertib (NSC841442), AZD-1390 (NSC803789), olaparib (NSC753686), talazoparib (NSC767125), rucaparib (NSC756644), sotorasib (NSC818433), MRTX-1133 (NSC836407), SN-38 (NSC673596), topotecan (NSC609699), epotoside (NSC141540), doxorubicin (NSC123127), gemcitabine (NSC613327), 5-fluorouracil (NSC19893), paclitaxel (NSC125973), vemurafenib (NSC761431), MSA-2 (NSC828583), SN-011 (NSC837082), adavosertib (NSC754352), prexasertib (NSC758257), carboplatin (NSC241240) and oxaliplatin (NSC266046), were obtained from the National Cancer Institute (NCI) Developmental Therapeutics Program Chemical Repository (21). The FDA-approved anticancer drug set is available from the Developmental Therapeutics Program at https://dtp.cancer.gov/organization/dscb/obtaining/. […] The stock solutions were prepared in dimethyl sulfoxide (DMSO, Sigma-Aldrich, St. Louis, MO, cat. D2650), except for the platinum compounds which were prepared in saline (Quality Biological, Gaithersburg, MD, cat. 114-055-101), at 800-fold the tested concentration and stored at -70 degrees C prior to their use. All drugs and investigational agents were tested over a range starting from a high concentration at or near the clinical Cmax and decreasing in half-log increments. If the clinical Cmax for an agent had not been determined, the highest concentration tested was 10 microM, except for SN-38, which was tested at a high concentration of 1 microM.
Cell Culture. All cells were maintained in an incubator at 37 degrees C and 5% CO2 with 95% humidity. The PDC lines were cultured according to standard operating procedures established by the NCI PDMR (https://pdmr.cancer.gov). Table 3 of the manuscript, lists the cell lines along with the number of the three cell types plated to form the mct-spheroids and media for tumor cell growth. After thawing, all PDC lines, except 997537-175-T-J1-PDC and 415267-285-R-J2-PDC, were cultured in Matrigel-coated flasks prepared with a working solution of 1X Ham's F-12 nutrient mix, without supplementation (Thermo Fisher Scientific, cat. 11765054), 100 U/mL penicillin-streptomycin (Thermo Fisher Scientific, cat. 15140122), and 2.5% Matrigel (Corning Inc., Corning, NY, cat. 354248) for the first three passages. The two PDC lines 997537-175-T-J1-PDC and 415267-285-R-J2-PDC were cultured on uncoated flasks. The 857933-349-R-J2-PDC line was cultured in 6C/Colon 1B media containing advanced DMEM/F-12 (Thermo Fisher Scientific, cat. 12634028), 10 mM HEPES (Thermo Fisher Scientific, cat. 15630080), 1X GlutaMAX supplement (Thermo Fisher Scientific, cat. 35050061), 0.1 mg/mL primocin (InvivoGen, San Diego, CA, cat. ant-pm-2), 10% defined fetal bovine serum, heat inactivated (HyClone Laboratories Inc., Logan, UT, cat. SH30070.03HI), 50% L-WRN conditioned media (ATCC, cat. CRL-3276), 1.25 mM N-Acetyl-L-cysteine (Sigma-Aldrich, cat. A9165), 10 mM nicotinamide (Sigma-Aldrich, cat. N0636), 1X B-27 supplement (Thermo Fisher Scientific, cat. 17504044), 1X N-2 supplement (Thermo Fisher Scientific, cat. […]
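Note: spheroids exposed to compounds for seven days.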
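Throughout, for viability, T/C: 100% = DMSO vehicle control viability.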

Q: How did the IC50 (curve of first compound, second compound 0.0316 µM) turn out when `CCCS(=O)(=O)Nc1ccc(F)c(C(=O)c2c[nH]c3ncc(-c4ccc(Cl)cc4)cc23)c1F` + Cc1cccc(N(C)C(=O)C2C(O)CCN2c2nc(C)cc(C(F)(F)F)c2C#N)c1 was run?
A: The IC50 was > 10 µM.

Q: What about the IC50 (curve of first compound, second compound 0.1 µM) of the same compound?
A: The IC50 was > 10 µM.

Q: And the IC50 (curve of first compound, second compound 0.316 µM)?
A: The IC50 was > 10 µM.

Q: What about the IC50 (curve of first compound, second compound 1 µM) of the same compound?
A: Its IC50 is > 10 µM.

Q: What about the IC50 (curve of first compound, second compound 3.16 µM) of the same compound?
A: Its IC50 is > 10 µM.

Q: And the IC50 (curve of first compound, second compound 10 µM)?
A: Its IC50 is > 10 µM.

Q: And the viability, T/C (second compound 0.0316 µM, first compound 0.0316 µM)?
A: Its viability, T/C is 95.1%.

Q: What about the viability, T/C (second compound 0.0316 µM, first compound 0.1 µM) of the same compound?
A: Its viability, T/C is 77.8%.

Q: What about the viability, T/C (second compound 0.0316 µM, first compound 0.316 µM) of the same compound?
A: The viability, T/C was 73.6%.

Q: And the viability, T/C (second compound 0.0316 µM, first compound 1 µM)?
A: The viability, T/C was 67.4%.

Q: What about the viability, T/C (second compound 0.0316 µM, first compound 3.16 µM) of the same compound?
A: Its viability, T/C is 76.2%.

Q: And the viability, T/C (second compound 0.0316 µM, first compound 10 µM)?
A: The viability, T/C was 64.3%.

Q: What about the viability, T/C (second compound 0.1 µM, first compound 0.0316 µM) of the same compound?
A: The viability, T/C was 91.8%.

Q: And the viability, T/C (second compound 0.1 µM, first compound 0.1 µM)?
A: Its viability, T/C is 88.4%.

Q: What about the viability, T/C (second compound 0.1 µM, first compound 0.316 µM) of the same compound?
A: Its viability, T/C is 66.3%.

Q: What about the viability, T/C (second compound 0.1 µM, first compound 1 µM) of the same compound?
A: Its viability, T/C is 73.2%.

Q: And the viability, T/C (second compound 0.1 µM, first compound 3.16 µM)?
A: The viability, T/C was 75.7%.

Q: What about the viability, T/C (second compound 0.1 µM, first compound 10 µM) of the same compound?
A: The viability, T/C was 69.7%.

Q: And the viability, T/C (second compound 0.316 µM, first compound 0.0316 µM)?
A: The viability, T/C was 92.5%.

Q: What about the viability, T/C (second compound 0.316 µM, first compound 0.1 µM) of the same compound?
A: The viability, T/C was 85.6%.

Q: What about the viability, T/C (second compound 0.316 µM, first compound 0.316 µM) of the same compound?
A: Its viability, T/C is 73%.

Q: And the viability, T/C (second compound 0.316 µM, first compound 1 µM)?
A: Its viability, T/C is 77.5%.

Q: What about the viability, T/C (second compound 0.316 µM, first compound 3.16 µM) of the same compound?
A: Its viability, T/C is 70%.

Q: What about the viability, T/C (second compound 0.316 µM, first compound 10 µM) of the same compound?
A: Its viability, T/C is 61.8%.

Q: And the viability, T/C (second compound 1 µM, first compound 0.0316 µM)?
A: The viability, T/C was 86.9%.

Q: What about the viability, T/C (second compound 1 µM, first compound 0.1 µM) of the same compound?
A: Its viability, T/C is 91.9%.

Q: And the viability, T/C (second compound 1 µM, first compound 0.316 µM)?
A: The viability, T/C was 90.5%.

Q: And the viability, T/C (second compound 1 µM, first compound 1 µM)?
A: The viability, T/C was 70.3%.

Q: And the viability, T/C (second compound 1 µM, first compound 3.16 µM)?
A: The viability, T/C was 68%.

Q: And the viability, T/C (second compound 1 µM, first compound 10 µM)?
A: The viability, T/C was 61.4%.

Q: What about the viability, T/C (second compound 3.16 µM, first compound 0.0316 µM) of the same compound?
A: Its viability, T/C is 92.1%.

Q: And the viability, T/C (second compound 3.16 µM, first compound 0.1 µM)?
A: The viability, T/C was 92.9%.

Q: And the viability, T/C (second compound 3.16 µM, first compound 0.316 µM)?
A: Its viability, T/C is 72.1%.

Q: What about the viability, T/C (second compound 3.16 µM, first compound 1 µM) of the same compound?
A: The viability, T/C was 64.3%.

Q: And the viability, T/C (second compound 3.16 µM, first compound 3.16 µM)?
A: The viability, T/C was 61.5%.

Q: And the viability, T/C (second compound 3.16 µM, first compound 10 µM)?
A: Its viability, T/C is 65%.

Q: And the viability, T/C (second compound 10 µM, first compound 0.0316 µM)?
A: Its viability, T/C is 81.6%.

Q: What about the viability, T/C (second compound 10 µM, first compound 0.1 µM) of the same compound?
A: The viability, T/C was 81.2%.

Q: What about the viability, T/C (second compound 10 µM, first compound 0.316 µM) of the same compound?
A: The viability, T/C was 77.1%.

Q: What about the viability, T/C (second compound 10 µM, first compound 1 µM) of the same compound?
A: Its viability, T/C is 62.8%.

Q: And the viability, T/C (second compound 10 µM, first compound 3.16 µM)?
A: Its viability, T/C is 73.5%.

Q: And the viability, T/C (second compound 10 µM, first compound 10 µM)?
A: The viability, T/C was 58.4%.

Q: Which results are given for `CCc1c2c(nc3ccc(O)cc13)-c1cc3c(c(=O)n1C2)COC(=O)[C@]3(O)CC`?
A: viability, T/C (compound 0.00316 µM): 106% and 102% and 122%; viability, T/C (compound 0.01 µM): 69.4% and 103% and 64.5%; viability, T/C (compound 0.0316 µM): 63.4% and 83.3% and 72.2%; viability, T/C (compound 0.1 µM): 44.6% and 68.1% and 50.9%; viability, T/C (compound 0.316 µM): 31.1% and 69.5% and 42%; viability, T/C (compound 1 µM): 20% and 66.9% and 19.1%

Q: How did the viability, T/C (compound 0.0316 µM) turn out when `CC(C)n1c(=O)n(C)c2cnc3cc(F)c(-c4ccc(OCCCN5CCCCC5)nc4)cc3c21` was run?
A: The viability, T/C was 103% and 107% and 118%.

Q: What about the viability, T/C (compound 0.1 µM) of the same compound?
A: Its viability, T/C is 133% and 106% and 113%.

Q: And the viability, T/C (compound 0.316 µM)?
A: The viability, T/C was 104% and 103% and 109%.

Q: What about the viability, T/C (compound 1 µM) of the same compound?
A: Its viability, T/C is 103% and 118% and 107%.

Q: What about the viability, T/C (compound 3.16 µM) of the same compound?
A: Its viability, T/C is 104% and 114% and 103%.

Q: And the viability, T/C (compound 10 µM)?
A: Its viability, T/C is 104% and 108% and 105%.

Q: What about the IC50 (curve of compound) of the same compound?
A: The IC50 was > 10 µM.

Q: How did the viability, T/C (compound 0.0316 µM) turn out when `Nc1ccn(C2OC(CO)C(O)C2(F)F)c(=O)n1` (stereo not drawn) was run?
A: Its viability, T/C is 74% and 105% and 75.7%.

Q: What about the viability, T/C (compound 0.1 µM) of the same compound?
A: The viability, T/C was 45.1% and 88.6% and 54.5%.

Q: What about the viability, T/C (compound 0.316 µM) of the same compound?
A: Its viability, T/C is 30.1% and 97.8% and 29.1%.

Q: What about the viability, T/C (compound 1 µM) of the same compound?
A: The viability, T/C was 23.5% and 84.4% and 33.9%.

Q: What about the viability, T/C (compound 3.16 µM) of the same compound?
A: The viability, T/C was 23.9% and 84% and 18.8%.

Q: And the viability, T/C (compound 10 µM)?
A: Its viability, T/C is 13.4% and 71.6% and 11.1%.

Q: Which viability, T/C (compound 0.00316 µM) does the source give for `COc1cccc(OCCCN)c1-c1cc(Nc2cnc(C#N)cn2)n[nH]1` here?
A: The viability, T/C was 107% and 99.4% and 101%.

Q: What about the viability, T/C (compound 0.01 µM) of the same compound?
A: The viability, T/C was 94.1% and 89.1% and 85.9%.

Q: What about the viability, T/C (compound 0.0316 µM) of the same compound?
A: The viability, T/C was 76.9% and 82.1% and 72.1%.

Q: And the viability, T/C (compound 0.1 µM)?
A: The viability, T/C was 49.5% and 74.7% and 75.6%.

Q: What about the viability, T/C (compound 0.316 µM) of the same compound?
A: Its viability, T/C is 37.2% and 63.1% and 52.5%.

Q: What about the viability, T/C (compound 1 µM) of the same compound?
A: Its viability, T/C is 26.8% and 44% and 43.3%.

Q: And the IC50 (curve of compound)?
A: The IC50 was 0.112 µM and 0.731 µM and 0.534 µM.
